Data taken from publication PMC10167227, “Lipid flipping in the omega-3 fatty-acid transporter” (Nature Communications, 2023).

Molecular target: T1, drMfsd2a (Danio rerio isoform B Mfsd2a) (Danio rerio, UniProt Q6DEJ6, N214Q/N225Q/N509Q)
T1 construct: gene mfsd2ab; recombinant in Sf-9 insect cells, N-terminal 10xHis tag removed by TEV; truncated at D22 and D509; DDM-purified
T1 sequence (Q6DEJ6 22-509 N214Q/N225Q/N509Q): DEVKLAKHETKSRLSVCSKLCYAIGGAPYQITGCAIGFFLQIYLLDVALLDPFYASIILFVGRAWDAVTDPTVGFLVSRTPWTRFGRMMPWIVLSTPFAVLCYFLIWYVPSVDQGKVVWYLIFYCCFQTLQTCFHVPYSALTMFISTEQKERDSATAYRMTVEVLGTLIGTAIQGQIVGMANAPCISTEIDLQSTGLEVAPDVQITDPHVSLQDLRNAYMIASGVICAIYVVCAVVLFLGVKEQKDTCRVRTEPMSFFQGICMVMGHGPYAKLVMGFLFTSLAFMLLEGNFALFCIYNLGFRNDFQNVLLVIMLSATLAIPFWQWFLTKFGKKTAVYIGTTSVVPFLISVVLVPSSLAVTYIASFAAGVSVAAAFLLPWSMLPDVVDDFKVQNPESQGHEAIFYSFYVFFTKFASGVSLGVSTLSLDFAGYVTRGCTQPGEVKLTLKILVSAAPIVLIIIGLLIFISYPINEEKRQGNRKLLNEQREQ
Experiment: single-particle cryo-EM structures of Fab complex
Type: binding
Conditions: co-purified endogenous lipid; identity modelled into lipid-like densities at four positions (1A, 1B, 2B, 3C); inward-facing; pH 8.0, 150 mM NaCl, 0.02% DDM

**Q.** How did the “single-particle cryo-EM structures of Fab complex” value turn out when `CC/C=C\C/C=C\C/C=C\CCCCCCCC(=O)OC[C@@H](O)COP(=O)([O-])OCC[N+](C)(C)C` [ALA-LPC] was run?
**A.** We therefore modeled ALA-LPC into the four distinct lipid-like densities
